According to US20060241124A1, “Combinations comprising paroxetine and 2- (s) - (4-fluoro-2-methyl-phenyl) -piperazine-1-carboxylic acid [1- (r)- (3,5-bis-trifluoro-2-methyl-phenyl) -ethyl]-methyl amide for treatment of depression and/or anxiety” (priority 2003, published 2006):
Where a name gives a salt, the structure may show the parent alone.

Test system: mongolian gerbils
Experiment: gerbil social interaction model (time spent in active social interactions)
Assay type: in vivo
Settings: one hour after administration
Experimental: Paroxetine hydrochloride hemihydrate (0.3 mg/kg p.o of the paroxetine measured as the free base.), 2-(S)-(4-Fluoro-2-methyl-phenyl)-piperazine-1-carboxylic acid [1-(R)-(3,5-bis-trifluoromethyl-phenyl)-ethyl]-methyl-amide methansulphonate (hereinafter compound A) (0.1 mg/kg i.p of the compound A measured as the free base) and a combination of paroxetine (0.3 mg/kg p.o. of the paroxetine measured as the free base) and compound A (0.1 mg/kg i.p. of the compound A measured as the free base) were administered independently in mongolian gerbils to assess the effect on time spent in active social interactions.
The results obtained one hour after administration, expressed as a percentage variation of the time spent in active social interactions by each animal in respect to the value obtained by treatment of control animals, are summarised in table 1.

Row | SMILES | % variation of the time spent in active social interactions in respect to control animals (0.1 mg/kg i.p. (measured as the free base)) [%] | % variation of the time spent in active social interactions in respect to control animals (0.3 mg/kg p.o. (measured as the free base)) [%]
1 | CS(=O)(=O)O.Cc1cc(F)ccc1[C@H]1CNCCN1C(=O)N(C)[C@H](C)c1cc(C(F)(F)F)cc(C(F)(F)F)c1 [Compound A, 2-(S)-(4-Fluoro-2-methyl-phenyl)-piperazine-1-carboxylic acid [1-(R)-(3,5-bis-trifluoromethyl-phenyl)-ethyl]-methyl-amide methansulphonate] | −8 | –
2 | Fc1ccc([C@@H]2CCNC[C@H]2COc2ccc3c(c2)OCO3)cc1 [Paroxetine hydrochloride hemihydrate, (−) trans-4-(4′-fluorophenyl)3-(3′-4′-methylenedioxyphenoxymethyl)piperidine] | – | −2
